{"source": "patent US8394785B2", "about": "“Methods for the treatment and amelioration of urticaria” (Jado Technologies GmbH, priority 2005, dated 2013)", "key": {"human basophils": {"system": "human basophils", "test": "Histamine release assay, anti-IgE induced, human basophils", "type": "cell-based", "conditions": "10 minutes pre-incubation, read-out: maximal inhibitory effect on anti-IgE induced histamine release", "method": "Human basophils were isolated from whole blood using ficoll paque (D=1.077). Briefly, heparinized whole blood was diluted 1:3 with PBS (w/o Ca and Mg), layered on the ficoll paque solution, and centrifuged for 30 min at 400×g. Low-density particles such as lymphocytes, monocytes, basophils, and platelets were recovered from the interface between the plasma and ficoll solution. The cell suspension from the interface was centrifuged twice at 200×g for 10 min for removal of thrombocytes from the basophil fraction. The number of basophils in the cell suspension was determined by Toluidin blue staining. The yield of basophils was approximately 2%. These pre-purified basophils were used for the histamine release assay. For the cytokine release assays, basophils were further purified using the “Basophil Isolation Kit” for depletion of non-basophils from the interface cell suspension. […] The quantification of histamine levels was achieved using an automated histamine-analyser system (Firm Borgwelt Technik). The wavelength of the excitation was 355-360 nm and the emission wavelength of fluorescence measurement was 450-460 nm. The intensity of fluorescence was directly proportional to the concentration of histamine in the samples. The amount of released histamine was calculated according to the following formula: net histamine release=(release−blank)×(100/complete). […]"}, "[1]": {"system": "allergic volunteers with known type-1-sensitizations", "test": "Prick test with patient-specific allergen after topical pre-treatment, wheal size", "type": "in vivo, human", "conditions": "n = 5; for allergen-prick wheal ± standard error: miltefosine pre-treatment (6% solution, topical, 2 h before); for allergen-prick % inhibition ± standard error (by miltefosine pre-treatment): versus placebo pre-treatment", "from_the_text": "(§1) To provide proof of concept that miltefosine inhibits IgE-dependent human mast cell stimulation and mediator release in vivo we performed a study on selected allergic volunteers with known type-1-sensitizations (n=5). The volunteers were subjected to standard prick testing with their known allergens on both forearms as well as with positive (histamine) and negative (saline) controls (Table 3). Using a double blind, placebo controlled approach, one forearm of each test person was pre-treated with topical miltefosine (6% solution). The contralateral side was subjected to a pre-treatment with a placebo solution (saline), both two hours prior to the prick test. Subsequently, developing skin symptoms were measured with high-quality standardized methods, i.e. macroscopic standard prick test-evaluation (Heinzerling et al 2005), volumetric imaging, thermography, and digital time lapse photography (DTLP). Volunteers known to suffer from permanent severe diseases, especially those affecting the immune system, were excluded from the study. None of the volunteers took any oral […] or leukotriene antagonists within 7 days prior to the beginning of the study. Moreover, none of them took any oral or depot corticosteroids or other immunosuppressive drugs within 21 days before the testing. The course of developing lesions (wheal and erythema size) was assessed macroscopically by measuring vertical and perpendicular diameter of wheal and erythema size. Subsequently, the sum of both diameters was divided by two. In addition, volumetric and thermographic imaging as well as DTLP was performed before and at defined time points after prick testing. To assess the course of developing prick test lesions, wheal size was assessed macroscopically by measuring the diameters at distinct time points after prick testing."}, "[2]": {"system": "allergic volunteers with known type-1-sensitizations", "test": "Prick test with histamine after topical pre-treatment, wheal size", "type": "in vivo, human", "conditions": "n = 5; for histamine-prick wheal ± standard error: miltefosine pre-treatment (6% solution, topical, 2 h before); for histamine-prick % inhibition ± standard error (by miltefosine pre-treatment): versus placebo pre-treatment", "from_the_text": "as §1"}}}
{"smiles": "CCCCCCCCCCCCCCCCOP(=O)([O-])OCC[N+](C)(C)C", "note": "[Compound 3, 1-hexadecylphosphoryl-choline]", "values": [{"measurement": "inhibition at 25 µM", "setting": "human basophils", "result": 10, "unit": "%"}, {"measurement": "allergen-prick wheal ± standard error", "setting": "[1]; 15 minutes after prick testing", "result": "4.20 ± 1.36", "unit": "mm"}, {"measurement": "allergen-prick wheal ± standard error", "setting": "[1]; 20 minutes after prick testing", "result": "4.40 ± 1.34", "unit": "mm"}, {"measurement": "allergen-prick wheal ± standard error", "setting": "[1]; 30 minutes after prick testing", "result": "2.90 ± 1.36", "unit": "mm"}, {"measurement": "allergen-prick % inhibition ± standard error (by miltefosine pre-treatment)", "setting": "[1]; 15 minutes after prick testing", "result": "35.0 ± 16.6", "unit": "%"}, {"measurement": "allergen-prick % inhibition ± standard error (by miltefosine pre-treatment)", "setting": "[1]; 20 minutes after prick testing", "result": "34.8 ± 18.0", "unit": "%"}, {"measurement": "allergen-prick % inhibition ± standard error (by miltefosine pre-treatment)", "setting": "[1]; 30 minutes after prick testing", "result": "51.8 ± 22.8", "unit": "%"}, {"measurement": "histamine-prick wheal ± standard error", "setting": "[2]; 15 minutes after prick testing", "result": "4.40 ± 0.86", "unit": "mm"}, {"measurement": "histamine-prick wheal ± standard error", "setting": "[2]; 20 minutes after prick testing", "result": "4.30 ± 1.08", "unit": "mm"}, {"measurement": "histamine-prick wheal ± standard error", "setting": "[2]; 30 minutes after prick testing", "result": "3.40 ± 1.43", "unit": "mm"}, {"measurement": "histamine-prick % inhibition ± standard error (by miltefosine pre-treatment)", "setting": "[2]; 15 minutes after prick testing", "result": "22.4 ± 14.2", "unit": "%"}, {"measurement": "histamine-prick % inhibition ± standard error (by miltefosine pre-treatment)", "setting": "[2]; 20 minutes after prick testing", "result": "19.2 ± 23.1", "unit": "%"}, {"measurement": "histamine-prick % inhibition ± standard error (by miltefosine pre-treatment)", "setting": "[2]; 30 minutes after prick testing", "result": "−7.9 ± 23.2", "unit": "%"}]}
